Test results as given in patent US10851067B2, “Kv7 channel activators compositions and methods of use” (Knopp Biosciences LLC, priority 2018, dated 2020).

Target: Kv7.2/7.3 (Homo sapiens, UniProt O43525+O43526)
Assay: Kv7.2/7.3 Activation Assay, QPatch single concentration screen
Assay type: cell-based
Design: host or cells: HEK cells, tetracycline-inducible expression; key: 1.2-2.9 (+); 3-3.9 (++); >4 (+++) fold increase over baseline; O represents open channel at holding potential
Settings: Kv7.2/Kv7.3 co-expressing HEK cells, compound concentration 3 μM, steady-state current at end of 2 s pulse to −30 mV
Protocol: Kv7.2/7.3 Activation Assay
The ability of compounds to potentiate K-currents in Kv7.2/7.3 containing HEK cells was assessed using planar patch-clamp on the QPatch automated screening platform.
The hKv7.2/7.3 cell line was obtained from Chantest (Cleveland, Ohio 44128) cat. #CT6147. These HEK cells will express the Kv7.2/7.3 ion channels when induced.
Cells were maintained in a media containing DMEM/F12; 50/50 (GIBCO cat. #11330), 10% Fetal Bovine Serum (FBS) (GIBCO cat. #26140), 100 units/mL Penicillin-Streptomycin (GIBCO cat. #15140), 0.005 mg/mL Blasticidin (INVIVOGEN cat. #ant-b1-1), 0.5 mg/mL Geneticin (GIBCO cat. #10131), 0.1 mg/mL Zeocin (GIBCO cat. #R25001). Cells used in the electrophysiology assay were maintained in a media without Blasticidin, Geneticin and Zeocin for 2 days and channel expression was induced by adding tetracycline (BIOLINE cat. #BIO-87030) at a final concentration of 1 mg/mL. Cells were grown in T-175 flask to ˜75% confluency. Currents were recorded 24 hours after channel induction.
Test compounds were prepared by performing serial dilutions on a Biomek NX^P (BECKMAN COULTER). Final dilutions were made in external recording solution with a final DMSO concentration of 0.1% DMSO. For single concentration screens each plate had 10 μM retigabine as a positive control and 0.1% DMSO as a negative control.
On the day of the experiment cells were washed with Hank's Balanced Salt Solution (HBBS) (GIBCO cat. #14175) and harvested with Tryple (GIBCO cat. #12604). Cells were then centrifuged at 2000 rpm for 5 minutes and resuspended in CHO-S-SFM (GIBCO cat. #12052) at ˜3×10^6 cells/mL. Cells were stirred for 30 minutes before experiments were started. External recording solution contained (in mM): NaCl (145), KCl (4), CaCl2 (2), MgCl2 (1), HEPES (10) and Glucose (10); pH was adjusted to 7.4 with NaOH and the osmolarity was adjusted to 300-305 mOsM with sucrose if necessary. Internal solution contained (in mM): KCl (125), KF (10), EGTA (5), Na2ATP (5), MgCl2 (3.2), HEPES (5); pH was adjusted to 7.2 with KOH and the osmolarity was adjusted to 298-302 mOsM with sucrose.
Potassium channel activity was measured on the QPatch HTX (Sophion Bioscience) using QPlates with 48-wells/plate. Each cell was taken as an independent experiment and only one compound was tested per well. Potassium channel activity was elicited by holding at −80 mV and stepping to −30 mV for 2 s followed by a 100 ms pulse to −120 mV.
Single Concentration Screen:
Baseline conditions were obtained by recording 5 sweeps in the external solution only, this was repeated for three applications of the external solution. The effect of test compounds on elicited current was then assessed by recording 5 sweeps in the presence of a 3 μM compound solution. The steady-state current at the end of the 2 s pulse to −30 mV was measured to determine the fold increase from baseline.

| Structure (SMILES) | Kv7.2/7.3 Activity: increase over baseline in current |
| --- | --- |
| [2H]C([2H])([2H])C(CC(=O)Nc1nc2c(F)cc(C(C)(C)O)cc2n1C1CCC1)(C([2H])([2H])[2H])C([2H])([2H])[2H] [Example 342, N-(1-cyclobutyl-4-fluoro-6-(2-hydroxypropan-2-yl)-1H-benzo[d]imidazol-2-yl)-3,3-bis(methyl-d3)butanamide] | +++ (>4 (+++) fold increase over baseline) |
| CC(C)(C)CC(=O)Nc1nc2c(F)cc(C3(O)CCC3)cc2n1C1CCC1 [Example 421, N-(1-cyclobutyl-4-fluoro-6-(1-hydroxycyclobutyl)-1H-benzo[d]imidazol-2-yl)-3,3-dimethylbutanamide] | +++ (>4 (+++) fold increase over baseline) |
| CC(C)(CC(=O)Nc1nc2c(F)cc(O)cc2n1C1CCC1)C(F)(F)F [Example 359, N-(1-cyclobutyl-4-fluoro-6-hydroxy-1H-benzo[d]imidazol-2-yl)-4,4,4-trifluoro-3,3-dimethylbutanamide] | ++ (3-3.9 (++)) |
| CC1(CC(=O)Nc2nc3c(F)cc(C(C)(C)O)cc3n2C2(C)CCC2)CC1 [Example 474, N-(4-fluoro-6-(2-hydroxypropan-2-yl)-1-(1-methylcyclobutyl)-1H-benzo[d]imidazol-2-yl)-2-(1-methylcyclopropyl)acetamide] | O |
| CN(C)c1ccc2nc(NC(=O)CC(C)(O)c3ccccc3)n(C3CCC3)c2c1F (single isomer, unassigned) [Example 485, N-(1-cyclobutyl-6-(dimethylamino)-7-fluoro-1H-benzo[d]imidazol-2-yl)-3-hydroxy-3-phenylbutanamide] | +++ (>4 (+++) fold increase over baseline) |
| CC(C)(CC(=O)Nc1nc2cccc(C#N)c2n1C1(C)CCC1)C1CC1 [Example 426, N-(7-cyano-1-(1-methylcyclobutyl)-1H-benzo[d]imidazol-2-yl)-3-cyclopropyl-3-methylbutanamide] | +++ (>4 (+++) fold increase over baseline) |
| COc1cc(Br)cc2c1nc(NC(=O)CC(C)(C)C)n2C1CCC1 [Example 382, N-(6-bromo-1-cyclobutyl-4-methoxy-1H-benzo[d]imidazol-2-yl)-3,3-dimethylbutanamide] | +++ (>4 (+++) fold increase over baseline) |
| CC(C)(C)CC(=O)Nc1nc2c(F)cc(C(C)(C)O)c(F)c2n1C1CCC1 [Example 438, N-(1-cyclobutyl-4,7-difluoro-6-(2-hydroxypropan-2-yl)-1H-benzo[d]imidazol-2-yl)-3,3-dimethylbutanamide] | O |
| CC1(n2c(NC(=O)CC(C)(C)C(F)(F)F)nc3c(F)cc(OC(F)F)cc32)CCC1 [Example 461, N-(6-(difluoromethoxy)-4-fluoro-1-(1-methylcyclobutyl)-1H-benzo[d]imidazol-2-yl)-4,4,4-trifluoro-3,3-dimethylbutanamide] | + (1.2-2.9 (+)) |
| CC(C)(O)c1cc(F)c2nc(NC(=O)CC3CC(F)(F)C3(F)F)n(C3CCC3)c2c1 (single isomer, unassigned) [Example 400, N-(1-cyclobutyl-4-fluoro-6-(2-hydroxypropan-2-yl)-1H-benzo[d]imidazol-2-yl)-2-(2,2,3,3-tetrafluorocyclobutyl)acetamide] | +++ (>4 (+++) fold increase over baseline) |
| COc1cc(F)c2nc(NC(=O)CC(C)(C)C(F)(F)F)n(C3(C)CCC3)c2c1 [Example 433, 4,4,4-trifluoro-N-(4-fluoro-6-methoxy-1-(1-methylcyclobutyl)-1H-benzo[d]imidazol-2-yl)-3,3-dimethylbutanamide] | ++ (3-3.9 (++)) |
| CC(C)(C)CC(=O)Nc1nc2c(Cl)cc(C#N)cc2n1C1CCC1 [Example 377, N-(4-chloro-6-cyano-1-cyclobutyl-1H-benzo[d]imidazol-2-yl)-3,3-dimethylbutanamide] | +++ (>4 (+++) fold increase over baseline) |
| COCc1c(Cl)ccc2nc(NC(=O)CC(C)(C)C)n(C3CCC3)c12 [Example 399, N-(6-chloro-1-cyclobutyl-7-(methoxymethyl)-1H-benzo[d]imidazol-2-yl)-3,3-dimethylbutanamide] | +++ (>4 (+++) fold increase over baseline) |

More lines, now with the values ahead:

| Kv7.2/7.3 Activity: increase over baseline in current | Structure (SMILES) |
| --- | --- |
| ++ (3-3.9 (++)) | CC(O)(CC(=O)Nc1nc2cc(F)cc(C#N)c2n1C1(C)CCC1)c1ccccc1 (single isomer, unassigned) [Example 465, N-(7-cyano-5-fluoro-1-(1-methylcyclobutyl)-1H-benzo[d]imidazol-2-yl)-3-hydroxy-3-phenylbutanamide] |
| ++ (3-3.9 (++)) | CC(C)(C)CC(=O)Nc1nc2cc(F)ccc2n1C1CCC1 [Example 449, N-(1-cyclobutyl-5-fluoro-1H-benzo[d]imidazol-2-yl)-3,3-dimethylbutanamide] |
| ++ (3-3.9 (++)) | CC1(CC(=O)Nc2nc3c(F)cc(C(C)(C)O)cc3n2C2CCC2)CC1 [Example 403, N-(1-cyclobutyl-4-fluoro-6-(2-hydroxypropan-2-yl)-1H-benzo[d]imidazol-2-yl)-2-(1-methylcyclopropyl)acetamide] |
| ++ (3-3.9 (++)) | CC(C)(C)n1c(NC(=O)CC(C)(C)C(F)(F)F)nc2ccc(C#N)c(F)c21 [Example 444, N-(1-(tert-butyl)-6-cyano-7-fluoro-1H-benzo[d]imidazol-2-yl)-4,4,4-trifluoro-3,3-dimethylbutanamide] |
| + (1.2-2.9 (+)) | CC1(n2c(NC(=O)CC(C)(C)C(F)(F)F)nc3c(OC(F)F)cc(C#N)cc32)CCC1 [Example 419, N-(6-cyano-4-(difluoromethoxy)-1-(1-methylcyclobutyl)-1H-benzo[d]imidazol-2-yl)-4,4,4-trifluoro-3,3-dimethylbutanamide] |
| ++ (3-3.9 (++)) | CC(O)(CC(=O)Nc1nc2ccc(C#N)cc2n1CC(F)(F)F)c1ccccc1F (single isomer, unassigned) [Example 483, N-(6-cyano-1-(2,2,2-trifluoroethyl)-1H-benzo[d]imidazol-2-yl)-3-(2-fluorophenyl)-3-hydroxybutanamide] |
| ++ (3-3.9 (++)) | CC(C)(C)CC(=O)Nc1nc2ccc(C#N)c(F)c2n1C(C)(C)C [Example 387, N-(1-(tert-butyl)-6-cyano-7-fluoro-1H-benzo[d]imidazol-2-yl)-3,3-dimethylbutanamide] |
| O | CC(C)(C)CC(=O)Nc1nc2ccc(C(C)(C)O)c(F)c2n1C1(C)CCC1 [Example 481, N-(7-fluoro-6-(2-hydroxypropan-2-yl)-1-(1-methylcyclobutyl)-1H-benzo[d]imidazol-2-yl)-3,3-dimethylbutanamide] |
| ++ (3-3.9 (++)) | CC(O)(CC(=O)Nc1nc2ccc(C#N)cc2n1CC1CC1)c1ccccc1 (single isomer, unassigned) [Example 428, N-(6-cyano-1-(cyclopropylmethyl)-1H-benzo[d]imidazol-2-yl)-3-hydroxy-3-phenylbutanamide] |
| ++ (3-3.9 (++)) | CC(C)(C)CC(=O)Nc1nc2cc(F)c(C#N)cc2n1C1(C)CCC1 [Example 437, N-(6-cyano-5-fluoro-1-(1-methylcyclobutyl)-1H-benzo[d]imidazol-2-yl)-3,3-dimethylbutanamide] |
| ++ (3-3.9 (++)) | CC(C)(C)CC(=O)Nc1nc2ccc(OC(F)F)cc2n1C1(C)CCC1 [Example 346, N-(6-(difluoromethoxy)-1-(1-methylcyclobutyl)-1H-benzo[d]imidazol-2-yl)-3,3-dimethylbutanamide] |
